Tested on: HCT-116 cells
Assay: In vitro cytotoxicity assay
Type: cell-based
Conditions: Homo sapiens, HCT-116, 72 h, read-out: IC50, HCT-116 cell proliferation

C[C@H](O)C(=O)N1CCC(CCn2c(Sc3cc4c(cc3Br)OCO4)nc3c(N)ncnc32)CC1 [MPC-3100, (2S)-1-[4-(2-{6-amino-8-[(6-bromo-1,3-benzodioxol-5-yl)sulfanyl]-9H-purin-9-yl}ethyl)piperidin-1-yl]-2-hydroxypropan-1-one]
IC50: 780 nM
